# Reference: the supplement of paper PMC10307832
# Legend:
# Assay in all cases: relative viability (nuclei count vs DMSO), 5 days (fraction); higher = more cells survive
# Apatinib + Olaparib = compound: N#CC1(c2ccc(NC(=O)c3cccnc3NCc3ccncc3)cc2)CCCC1 [Apatinib] + O=C(c1cc(Cc2n[nH]c(=O)c3ccccc23)ccc1F)N1CCN(C(=O)C2CC2)CC1 [Olaparib] (partner 8 µM)
# Method in brief: (§1)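 Each reported value is a median over duplicate plates. It expresses relative viability: treated-well nuclei count divided by vehicle-well nuclei count. Lung cancer cell lines in 1536-well plates were dosed by pin tool a day after seeding, alone with one drug or with a fixed anchor-drug dose plus five library-drug doses (not always all listed) in √10 steps, and nuclei were counted after 5 days.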
# Metformin + Luminespib = compound: CN(C)C(=N)NC(=N)N [Metformin] + CCNC(=O)c1noc(-c2cc(C(C)C)c(O)cc2O)c1-c1ccc(CN2CCOCC2)cc1 [Luminespib] (partner 0.01 µM)
# Method in brief: as §1
# Metformin + Trametinib = compound: CN(C)C(=N)NC(=N)N [Metformin] + CC(=O)Nc1cccc(-n2c(=O)n(C3CC3)c(=O)c3c(Nc4ccc(I)cc4F)n(C)c(=O)c(C)c32)c1 [Trametinib] (partner 0.02 µM)
# Method in brief: as §1
# Apatinib + Pictilisib = compound: N#CC1(c2ccc(NC(=O)c3cccnc3NCc3ccncc3)cc2)CCCC1 [Apatinib] + CS(=O)(=O)N1CCN(Cc2cc3nc(-c4cccc5[nH]ncc45)nc(N4CCOCC4)c3s2)CC1 [Pictilisib] (partner 1 µM)
# Method in brief: as §1
Cell Line,relative viability (Apatinib + Olaparib; first compound 0.08 µM),relative viability (Apatinib + Olaparib; first compound 0.253 µM),relative viability (Apatinib + Olaparib; first compound 0.8 µM),relative viability (Apatinib + Olaparib; first compound 2.53 µM),relative viability (Apatinib + Olaparib; first compound 8 µM),relative viability (Metformin + Luminespib; first compound 10 µM),relative viability (Metformin + Luminespib; first compound 31.62 µM),relative viability (Metformin + Luminespib; first compound 100 µM),relative viability (Metformin + Luminespib; first compound 316.23 µM),relative viability (Metformin + Luminespib; first compound 1000 µM),relative viability (Metformin + Trametinib; first compound 10 µM),relative viability (Metformin + Trametinib; first compound 31.62 µM),relative viability (Metformin + Trametinib; first compound 100 µM),relative viability (Metformin + Trametinib; first compound 316.23 µM),relative viability (Metformin + Trametinib; first compound 1000 µM),relative viability (Apatinib + Pictilisib; first compound 0.08 µM),relative viability (Apatinib + Pictilisib; first compound 0.253 µM),relative viability (Apatinib + Pictilisib; first compound 0.8 µM),relative viability (Apatinib + Pictilisib; first compound 2.53 µM),relative viability (Apatinib + Pictilisib; first compound 8 µM)
NCI-H358,0.681,0.559,0.553,0.569,0.453,0.575,0.677,0.555,0.211,0.364,0.12,0.128,0.139,0.137,0.157,0.282,0.241,0.283,0.298,0.301
ChaGo-K-1,0.47,0.523,0.443,0.408,0.344,0.599,0.751,0.67,0.634,0.696,0.923,0.895,0.909,0.729,0.902,,0.999,0.721,0.638,0.725
PC-14,0.278,0.28,0.222,0.213,0.252,0.373,0.18,0.202,0.289,0.502,0.746,0.666,0.767,0.686,0.575,0.708,0.837,0.39,0.547,0.55
NCI-H596,0.822,0.73,0.722,0.65,0.634,0.98,1.18,1.08,1.02,1.06,0.965,0.899,1.01,0.706,0.872,0.419,0.402,0.353,0.32,0.383
LOU-NH91,0.976,0.885,0.783,0.87,0.825,0.343,0.404,0.316,0.344,0.376,0.732,0.76,0.786,0.766,0.761,0.516,0.56,0.499,0.466,0.522
LU99A,0.286,0.269,0.276,0.252,0.207,0.223,0.233,0.238,0.269,0.252,0.524,0.482,0.544,0.433,0.448,0.333,0.327,0.332,0.302,0.295
NCI-H1355,0.787,0.798,0.745,0.647,0.616,0.752,0.704,0.768,0.701,0.752,0.416,0.356,0.395,0.474,0.427,0.499,0.42,0.428,0.382,0.364
NCI-H2023,0.429,0.508,0.462,0.35,0.395,0.649,0.725,0.711,0.67,0.676,0.5,0.563,0.516,0.415,0.467,0.269,0.228,0.209,0.209,0.231
NCI-H2347,0.634,0.485,0.583,0.517,0.493,0.328,1.03,,0.537,0.791,0.291,0.289,0.26,0.265,0.258,0.51,0.673,0.748,0.552,0.596
LC-2-ad,0.747,0.658,0.699,0.743,0.668,,0.858,0.934,0.683,0.647,,0.81,0.827,0.81,0.857,0.653,0.47,0.39,0.353,0.229
NCI-H1793,0.959,0.897,0.813,0.798,0.555,0.22,,0.147,0.16,0.235,0.432,0.454,0.413,0.45,0.507,0.277,0.23,0.391,0.256,0.342
NCI-H661,0.719,0.726,0.724,0.687,0.641,0.844,0.837,0.876,0.807,0.354,0.54,0.643,0.575,0.527,0.586,0.273,0.393,0.461,0.381,0.367
NCI-H1666,0.803,0.8,0.705,0.743,0.765,1.06,1.11,1.16,1.06,1.16,0.687,0.676,0.759,0.771,0.941,0.408,0.413,0.456,0.418,0.54
SK-LU-1,0.503,0.453,0.435,0.549,0.436,0.204,0.204,0.221,0.204,0.244,0.452,0.453,0.458,0.382,0.442,0.786,0.637,0.564,0.557,0.453
HOP-62,0.328,0.396,0.407,0.354,0.282,0.77,0.878,0.849,0.85,0.796,0.409,0.497,0.427,0.364,0.485,0.85,,0.816,0.758,0.466
CAL-12T,0.723,0.673,0.647,0.638,0.583,0.253,0.775,0.447,0.699,0.417,0.357,0.443,0.404,0.432,0.452,0.304,0.352,0.393,0.484,0.353
